The record followed here is patent publication US6936610B2, “Heterocyclic derivatives” (AstraZeneca UK Limited, priority 1996, dated 2005).

Where a name gives a salt, the structure may show the parent alone.

In general, melting point refers to the temperature, or range, at which the solid turns liquid. `O=C(c1ccc(-c2ccncc2)cc1)N1CCN(S(=O)(=O)c2ccc3cc(Cl)ccc3c2)CC1` (as salt: trifluoroacetate) [Example 7, 1-(6-chloronaphth-2-ylsulphonyl)4-[4-(4-pyridyl)benzoyl]piperazine] returned a melting point of 175 to 176 °C.

Consider `Cc1cc(-c2ccc(C(=O)N3CCN(S(=O)(=O)c4ccc5cc(Br)ccc5c4)CC3)cc2)ccn1` [Example 8, 1-(6-bromonaphth-2-ylsulphonyl)-4-[4-(2-methyl-4-pyridyl)benzoyl]piperazine], for which the melting point is 204 to 205 °C.

In turn, `O=C(c1ccc(-c2ccnnc2)cc1)N1CCN(S(=O)(=O)c2ccc3cc(Br)ccc3c2)CC1` [Example 9, 1-(6-bromonaphth-2-ylsulphonyl)4-[4-(4-pyridazinyl)benzoyl]piperazine] returned a melting point of 128 to 130 °C.
